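Values below derive from 48-hour exposures of cells grown in 96-well plates, with endpoints linearly interpolated between the two concentrations bracketing the appropriate inhibition level. TGI: total growth inhibition.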
Columns and labels:
Assay in all cases: NCI anticancer screen, dose series, 48 h
CAKI-1 renal = tested on: CAKI-1 renal
COLO 205 colon = tested on: COLO 205 colon
DU-145 prostate = tested on: DU-145 prostate
HOP-92 NSCLC = tested on: HOP-92 NSCLC
HT29 colon = tested on: HT29 colon
LOX IMVI melanoma = tested on: LOX IMVI melanoma
M14 melanoma = tested on: M14 melanoma
MCF7 breast = tested on: MCF7 breast
MDA-MB-435 = tested on: MDA-MB-435
NCI-H460 lung = tested on: NCI-H460 lung
NCI/ADR-RES ovarian = tested on: NCI/ADR-RES ovarian
OVCAR-4 ovarian = tested on: OVCAR-4 ovarian
OVCAR-5 ovarian = tested on: OVCAR-5 ovarian
OVCAR-8 ovarian = tested on: OVCAR-8 ovarian
RXF 393 renal = tested on: RXF 393 renal
SK-MEL-5 melanoma = tested on: SK-MEL-5 melanoma
SN12C renal = tested on: SN12C renal
SNB-19 CNS = tested on: SNB-19 CNS
U251 CNS = tested on: U251 CNS
UO-31 renal = tested on: UO-31 renal

CCOC(=O)c1ccc(-c2cccs2)[nH]1
TGI (CAKI-1 renal): > 100 µM | TGI (COLO 205 colon): > 100 µM | TGI (DU-145 prostate): > 100 µM | TGI (HOP-92 NSCLC): > 76.5 µM | TGI (HT29 colon): > 100 µM | TGI (LOX IMVI melanoma): > 100 µM | TGI (M14 melanoma): > 100 µM | TGI (MCF7 breast): > 100 µM | TGI (MDA-MB-435): > 100 µM | TGI (NCI-H460 lung): > 100 µM | TGI (NCI/ADR-RES ovarian): > 100 µM | TGI (OVCAR-4 ovarian): > 100 µM | TGI (OVCAR-5 ovarian): > 100 µM | TGI (OVCAR-8 ovarian): > 100 µM | TGI (RXF 393 renal): > 100 µM | TGI (SK-MEL-5 melanoma): > 100 µM | TGI (SN12C renal): > 100 µM | TGI (SNB-19 CNS): > 100 µM | TGI (U251 CNS): > 100 µM | TGI (UO-31 renal): > 89 µM

O=C1Cc2c(-c3ccccc3)cc(-c3ccc(Cl)cc3)nc2-c2ccccc2N1
TGI (CAKI-1 renal): 16.2 µM | TGI (COLO 205 colon): 18 µM | TGI (DU-145 prostate): > 90.2 µM | TGI (HOP-92 NSCLC): 8.72 µM | TGI (HT29 colon): > 46.8 µM | TGI (LOX IMVI melanoma): 21.9 µM | TGI (M14 melanoma): > 70.4 µM | TGI (MCF7 breast): > 72.2 µM | TGI (MDA-MB-435): > 45.7 µM | TGI (NCI-H460 lung): 11.5 µM | TGI (NCI/ADR-RES ovarian): 14.8 µM | TGI (OVCAR-4 ovarian): 3.82 µM | TGI (OVCAR-5 ovarian): > 83.7 µM | TGI (OVCAR-8 ovarian): 9.09 µM | TGI (RXF 393 renal): 17.3 µM | TGI (SK-MEL-5 melanoma): 17 µM | TGI (SN12C renal): 16.9 µM | TGI (SNB-19 CNS): 6.35 µM | TGI (U251 CNS): 10.5 µM | TGI (UO-31 renal): 7.31 µM

COc1ccc(-c2cc(=O)c3cc(OC)c(OC)cc3[nH]2)cc1OC
TGI (CAKI-1 renal): > 100 µM | TGI (COLO 205 colon): > 100 µM | TGI (DU-145 prostate): > 100 µM | TGI (HOP-92 NSCLC): > 100 µM | TGI (HT29 colon): > 100 µM | TGI (LOX IMVI melanoma): > 100 µM | TGI (M14 melanoma): > 100 µM | TGI (MCF7 breast): > 100 µM | TGI (MDA-MB-435): > 100 µM | TGI (NCI-H460 lung): > 100 µM | TGI (NCI/ADR-RES ovarian): > 100 µM | TGI (OVCAR-4 ovarian): > 100 µM | TGI (OVCAR-5 ovarian): > 100 µM | TGI (OVCAR-8 ovarian): > 100 µM | TGI (RXF 393 renal): > 100 µM | TGI (SK-MEL-5 melanoma): > 100 µM | TGI (SN12C renal): > 100 µM | TGI (SNB-19 CNS): > 100 µM | TGI (U251 CNS): > 100 µM | TGI (UO-31 renal): > 100 µM

CN1Cc2c(ccc3c2OCO3)[C@@H]2[C@H](O)Cc3cc4c(cc3[C@@H]21)OCO4
TGI (CAKI-1 renal): > 100 µM | TGI (COLO 205 colon): 4.55 µM | TGI (DU-145 prostate): > 30.6 µM | TGI (HOP-92 NSCLC): > 100 µM | TGI (HT29 colon): 5.12 µM | TGI (LOX IMVI melanoma): > 47.3 µM | TGI (M14 melanoma): > 28.4 µM | TGI (MCF7 breast): > 48.7 µM | TGI (MDA-MB-435): 2.53 µM | TGI (NCI-H460 lung): > 100 µM | TGI (NCI/ADR-RES ovarian): > 100 µM | TGI (OVCAR-4 ovarian): > 100 µM | TGI (OVCAR-5 ovarian): > 100 µM | TGI (OVCAR-8 ovarian): > 51.5 µM | TGI (RXF 393 renal): > 26.2 µM | TGI (SK-MEL-5 melanoma): 40 µM | TGI (SN12C renal): > 39.7 µM | TGI (SNB-19 CNS): > 26.5 µM | TGI (U251 CNS): > 25.1 µM | TGI (UO-31 renal): > 100 µM

CC(=O)OC/C=C/Cn1nc(Br)c(=O)[nH]c1=O
TGI (CAKI-1 renal): > 100 µM | TGI (COLO 205 colon): > 100 µM | TGI (DU-145 prostate): > 100 µM | TGI (HOP-92 NSCLC): > 100 µM | TGI (HT29 colon): > 100 µM | TGI (LOX IMVI melanoma): > 100 µM | TGI (M14 melanoma): > 100 µM | TGI (MCF7 breast): > 100 µM | TGI (MDA-MB-435): > 100 µM | TGI (NCI-H460 lung): > 100 µM | TGI (NCI/ADR-RES ovarian): > 100 µM | TGI (OVCAR-4 ovarian): > 100 µM | TGI (OVCAR-5 ovarian): > 100 µM | TGI (OVCAR-8 ovarian): > 100 µM | TGI (RXF 393 renal): > 100 µM | TGI (SK-MEL-5 melanoma): > 100 µM | TGI (SN12C renal): > 100 µM | TGI (SNB-19 CNS): > 100 µM | TGI (U251 CNS): > 100 µM | TGI (UO-31 renal): > 100 µM

O=C(c1ccccc1)n1c2ccc(Br)cc2c2nc3ccccc3nc21
TGI (CAKI-1 renal): > 100 µM | TGI (COLO 205 colon): > 100 µM | TGI (DU-145 prostate): > 100 µM | TGI (HOP-92 NSCLC): > 100 µM | TGI (HT29 colon): > 100 µM | TGI (LOX IMVI melanoma): > 100 µM | TGI (M14 melanoma): > 100 µM | TGI (MCF7 breast): > 100 µM | TGI (MDA-MB-435): > 100 µM | TGI (NCI-H460 lung): > 100 µM | TGI (NCI/ADR-RES ovarian): > 100 µM | TGI (OVCAR-4 ovarian): > 100 µM | TGI (OVCAR-5 ovarian): > 100 µM | TGI (OVCAR-8 ovarian): > 100 µM | TGI (RXF 393 renal): > 100 µM | TGI (SK-MEL-5 melanoma): > 100 µM | TGI (SN12C renal): > 100 µM | TGI (SNB-19 CNS): > 100 µM | TGI (U251 CNS): > 100 µM | TGI (UO-31 renal): > 100 µM
